Experimental data: patent US8685992B2, “Histone deacetylase inhibitors based simultaneously on trisubstituted 1H-pyrroles and aromatic and heteroaromatic spacers” (Universidad del País Vasco, priority 2009, dated 2014)

What was measured:
Human HDAC1 = Human HDAC1 (Homo sapiens (Human), UniProt Q13547); assay: HDAC1 fluorogenic peptide deacetylation assay; assay type: biochemical; settings: human HDAC1, 50 μM substrate, 30° C., 2 h; read-out: IC50 (nM) of enzyme activity HDAC1
Human HDAC2 = Human HDAC2 (Homo sapiens (Human), UniProt Q92769); assay: HDAC2 fluorogenic peptide deacetylation assay; assay type: biochemical; settings: human HDAC2, 50 μM substrate, 30° C., 2 h; read-out: IC50 (nM) of enzyme activity HDAC2
Human HDAC4 = Human HDAC4 (Homo sapiens (Human), UniProt P56524); assay: HDAC4 fluorogenic peptide deacetylation assay; assay type: biochemical; settings: human HDAC4, 50 μM substrate, 30° C., 2 h; read-out: IC50 (nM) of enzyme activity HDAC4
Chain of Human HDAC4 (P56524 627-1084 limits assumed): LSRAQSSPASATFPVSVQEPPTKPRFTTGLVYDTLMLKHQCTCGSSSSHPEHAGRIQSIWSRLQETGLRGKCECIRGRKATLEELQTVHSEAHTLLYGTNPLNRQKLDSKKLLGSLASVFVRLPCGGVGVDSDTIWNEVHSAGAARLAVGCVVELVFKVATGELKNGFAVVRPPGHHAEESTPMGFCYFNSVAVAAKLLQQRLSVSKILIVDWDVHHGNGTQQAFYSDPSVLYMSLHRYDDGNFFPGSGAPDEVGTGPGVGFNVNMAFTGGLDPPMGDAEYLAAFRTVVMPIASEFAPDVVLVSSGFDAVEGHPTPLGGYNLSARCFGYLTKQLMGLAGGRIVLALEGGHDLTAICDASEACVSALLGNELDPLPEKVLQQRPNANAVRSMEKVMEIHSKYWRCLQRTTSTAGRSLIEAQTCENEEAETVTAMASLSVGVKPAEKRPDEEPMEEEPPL

Human HDAC5 = Human HDAC5 (Homo sapiens (Human), UniProt Q9UQL6); assay: HDAC5 fluorogenic peptide deacetylation assay; assay type: biochemical; settings: human HDAC5, 50 μM substrate, 30° C., 2 h; read-out: IC50 (nM) of enzyme activity HDAC5
Chain of Human HDAC5 (Q9UQL6 other isoform, or with tags, fused parts or gaps): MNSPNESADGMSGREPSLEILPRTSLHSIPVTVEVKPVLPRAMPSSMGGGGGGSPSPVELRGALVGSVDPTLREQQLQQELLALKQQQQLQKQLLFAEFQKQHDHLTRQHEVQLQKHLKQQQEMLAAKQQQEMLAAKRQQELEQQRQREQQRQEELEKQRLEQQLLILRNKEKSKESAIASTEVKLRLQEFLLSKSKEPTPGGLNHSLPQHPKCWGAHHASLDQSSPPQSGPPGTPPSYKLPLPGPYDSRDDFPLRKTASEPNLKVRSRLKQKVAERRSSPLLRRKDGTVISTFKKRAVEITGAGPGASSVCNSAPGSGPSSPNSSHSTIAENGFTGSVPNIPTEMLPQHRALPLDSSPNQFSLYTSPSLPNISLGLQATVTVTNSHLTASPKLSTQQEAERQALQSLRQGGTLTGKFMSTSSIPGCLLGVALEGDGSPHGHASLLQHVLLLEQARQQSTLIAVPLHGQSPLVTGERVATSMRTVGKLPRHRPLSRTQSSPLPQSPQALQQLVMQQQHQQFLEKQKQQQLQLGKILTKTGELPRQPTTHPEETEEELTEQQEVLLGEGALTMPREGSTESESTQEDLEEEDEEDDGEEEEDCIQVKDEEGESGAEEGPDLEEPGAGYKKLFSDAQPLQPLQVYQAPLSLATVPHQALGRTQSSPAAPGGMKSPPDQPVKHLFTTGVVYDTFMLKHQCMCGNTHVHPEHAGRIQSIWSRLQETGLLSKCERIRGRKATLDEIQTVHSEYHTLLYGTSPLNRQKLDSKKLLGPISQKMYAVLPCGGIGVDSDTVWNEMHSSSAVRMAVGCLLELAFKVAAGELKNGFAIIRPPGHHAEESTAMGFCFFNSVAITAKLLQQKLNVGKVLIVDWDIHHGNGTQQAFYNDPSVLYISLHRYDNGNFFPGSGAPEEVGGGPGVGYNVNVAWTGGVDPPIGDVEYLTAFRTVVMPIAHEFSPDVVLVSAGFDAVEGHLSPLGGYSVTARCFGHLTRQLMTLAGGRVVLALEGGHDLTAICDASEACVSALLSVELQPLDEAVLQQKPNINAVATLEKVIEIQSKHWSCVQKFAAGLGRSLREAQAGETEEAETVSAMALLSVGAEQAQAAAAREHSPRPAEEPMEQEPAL

Human HDAC6 = Human HDAC6 (Homo sapiens (Human), UniProt Q9UBN7); assay: HDAC6 fluorogenic peptide deacetylation assay; assay type: biochemical; settings: human HDAC6, 50 μM substrate, 30° C., 2 h; read-out: IC50 (nM) of enzyme activity HDAC6
Chain of Human HDAC6 (Q9UBN7 whole entry): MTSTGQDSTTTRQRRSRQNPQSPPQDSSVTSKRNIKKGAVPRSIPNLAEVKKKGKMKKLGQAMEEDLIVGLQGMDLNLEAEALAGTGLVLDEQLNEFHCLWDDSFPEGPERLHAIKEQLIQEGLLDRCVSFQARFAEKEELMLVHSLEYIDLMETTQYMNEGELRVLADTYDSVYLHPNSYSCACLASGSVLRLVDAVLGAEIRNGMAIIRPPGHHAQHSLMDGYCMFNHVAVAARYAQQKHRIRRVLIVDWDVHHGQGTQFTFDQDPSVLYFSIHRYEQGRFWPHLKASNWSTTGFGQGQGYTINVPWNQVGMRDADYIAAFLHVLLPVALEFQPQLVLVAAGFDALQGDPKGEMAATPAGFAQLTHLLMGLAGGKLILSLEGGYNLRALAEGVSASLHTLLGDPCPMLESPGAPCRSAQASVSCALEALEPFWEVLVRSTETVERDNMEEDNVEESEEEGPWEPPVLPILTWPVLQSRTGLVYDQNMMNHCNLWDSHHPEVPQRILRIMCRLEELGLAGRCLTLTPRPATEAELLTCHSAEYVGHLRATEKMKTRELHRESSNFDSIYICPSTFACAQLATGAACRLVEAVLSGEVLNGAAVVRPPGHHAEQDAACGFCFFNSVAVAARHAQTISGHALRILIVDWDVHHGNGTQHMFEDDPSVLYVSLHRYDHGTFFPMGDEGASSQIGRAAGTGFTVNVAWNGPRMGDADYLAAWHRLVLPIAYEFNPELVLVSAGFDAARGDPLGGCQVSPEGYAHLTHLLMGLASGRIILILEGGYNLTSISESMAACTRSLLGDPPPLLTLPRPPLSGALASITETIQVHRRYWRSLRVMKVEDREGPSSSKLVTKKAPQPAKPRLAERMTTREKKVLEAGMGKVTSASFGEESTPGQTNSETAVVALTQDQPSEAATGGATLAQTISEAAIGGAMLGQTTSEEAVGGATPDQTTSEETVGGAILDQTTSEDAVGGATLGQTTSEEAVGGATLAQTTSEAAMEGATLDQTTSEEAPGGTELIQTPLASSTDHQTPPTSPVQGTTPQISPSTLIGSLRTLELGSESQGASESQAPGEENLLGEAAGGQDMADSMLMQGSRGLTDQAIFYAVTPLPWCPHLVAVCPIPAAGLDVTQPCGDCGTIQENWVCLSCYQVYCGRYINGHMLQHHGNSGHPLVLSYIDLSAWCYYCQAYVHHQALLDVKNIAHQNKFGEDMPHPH

Human HDAC8 = Human HDAC8 (Homo sapiens (Human), UniProt Q9BY41); assay: HDAC8 fluorogenic peptide deacetylation assay; assay type: biochemical; settings: human HDAC8, 50 μM substrate, 30° C., 2 h; read-out: IC50 (nM) of enzyme activity HDAC8
Chain of Human HDAC8 (Q9BY41 whole entry): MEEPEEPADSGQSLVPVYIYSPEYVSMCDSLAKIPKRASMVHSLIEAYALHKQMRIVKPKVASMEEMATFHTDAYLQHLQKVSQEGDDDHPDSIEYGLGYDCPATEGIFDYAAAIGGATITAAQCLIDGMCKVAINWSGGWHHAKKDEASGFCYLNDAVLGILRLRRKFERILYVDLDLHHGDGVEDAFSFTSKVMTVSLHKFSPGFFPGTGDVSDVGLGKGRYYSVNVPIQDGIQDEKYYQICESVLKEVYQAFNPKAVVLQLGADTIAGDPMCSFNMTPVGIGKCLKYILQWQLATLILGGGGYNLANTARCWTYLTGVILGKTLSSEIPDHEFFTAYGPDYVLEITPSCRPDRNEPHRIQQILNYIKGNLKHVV

Human HDAC9 = Human HDAC9 (Homo sapiens (Human), UniProt Q9UKV0); assay: HDAC9 fluorogenic peptide deacetylation assay; assay type: biochemical; settings: human HDAC9, 50 μM substrate, 30° C., 2 h; read-out: IC50 (nM) of enzyme activity HDAC9
Chain of Human HDAC9 (Q9UKV0 other isoform, or with tags, fused parts or gaps): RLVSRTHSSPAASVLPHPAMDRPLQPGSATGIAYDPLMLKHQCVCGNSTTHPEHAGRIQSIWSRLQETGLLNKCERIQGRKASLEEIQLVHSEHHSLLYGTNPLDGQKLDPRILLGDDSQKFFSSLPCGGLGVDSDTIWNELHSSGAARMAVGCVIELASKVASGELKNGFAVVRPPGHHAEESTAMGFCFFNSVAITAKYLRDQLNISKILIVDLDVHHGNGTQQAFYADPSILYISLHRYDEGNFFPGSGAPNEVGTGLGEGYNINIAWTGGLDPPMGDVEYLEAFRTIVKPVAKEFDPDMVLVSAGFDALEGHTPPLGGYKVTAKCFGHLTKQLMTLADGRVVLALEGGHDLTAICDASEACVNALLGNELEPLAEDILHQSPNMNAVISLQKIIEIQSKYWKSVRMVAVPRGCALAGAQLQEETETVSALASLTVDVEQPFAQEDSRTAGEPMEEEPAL

Human HDAC10 = Human HDAC10 (Homo sapiens (Human), UniProt Q969S8); assay: HDAC10 fluorogenic peptide deacetylation assay; assay type: biochemical; settings: human HDAC10, 50 μM substrate, 30° C., 2 h; read-out: IC50 (nM) of enzyme activity HDAC10
Chain of Human HDAC10 (Q969S8 1-631): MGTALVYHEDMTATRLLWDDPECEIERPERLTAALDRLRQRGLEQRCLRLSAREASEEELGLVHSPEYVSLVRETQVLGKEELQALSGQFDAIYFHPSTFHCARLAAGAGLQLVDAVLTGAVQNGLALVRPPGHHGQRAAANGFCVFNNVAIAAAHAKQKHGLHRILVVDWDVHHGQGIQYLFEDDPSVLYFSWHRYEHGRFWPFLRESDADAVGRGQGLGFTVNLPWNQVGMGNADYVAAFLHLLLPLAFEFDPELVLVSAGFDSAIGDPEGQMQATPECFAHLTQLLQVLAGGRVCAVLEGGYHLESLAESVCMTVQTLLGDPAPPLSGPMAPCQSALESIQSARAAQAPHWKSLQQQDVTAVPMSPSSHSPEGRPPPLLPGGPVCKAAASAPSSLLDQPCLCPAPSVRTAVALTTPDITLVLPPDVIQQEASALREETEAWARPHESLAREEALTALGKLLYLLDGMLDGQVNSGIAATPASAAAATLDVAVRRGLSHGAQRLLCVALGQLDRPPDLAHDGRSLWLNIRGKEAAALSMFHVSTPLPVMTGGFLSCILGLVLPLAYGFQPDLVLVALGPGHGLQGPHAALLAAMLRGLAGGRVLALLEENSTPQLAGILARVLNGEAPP

BT474 = assay: Cancer cell growth inhibition, BT474; assay type: cell-based; settings: Homo sapiens, BT-474; BT474, Breast Cancer, 72 h treatment
Protocol: (§1) Cell culture-based assays were used to evaluate the ability of compounds of the invention to inhibit cancer cell growth inhibition.
(§2) Cells were obtained from the American Type Culture Collection (ATCC). Cells were cultured at 37° C. with 5% CO2 in the appropriate growth medium (see table below), and harvested respectively during the logarithmic growth period and counted with hemocytometer. The cell viability was over 98% by trypan blue exclusion. Cell concentrations were adjusted between 5×10^4 and 2×10^5 cells/ml with respective medium.
(§3) Stock solutions of test compounds and positive drugs Doxorubicin (Zhejiang, Haizheng, China), Paclitaxel (Beijing, Xiehe, China), Vincristin (Shenzhen Wanle, China), 5-FU (Tianjin jinyaoanjisuan, China), Irinotecan (Jiangsu Hengrui, China) and Cisplatin Nanjing zhiyao, China) were prepared in dimethyl sulphoxide (DMSO) or PBS at 20 mM.
(§4) All treatments were performed in triplicate. 10 μl drug solution was added to each well and incubated for 72 hours. At the end of the incubation, 20 μl of the freshly prepared MTS/PMS mixture solution was added to each well and incubated for 4 hours at 37° C. in a humidified, 5% CO2 atmosphere. Absorbance was read at 490 nm using SpectraMAX Plus microplate spectrophotometer. […] In order to calculate IC50, a dose-responsive curve was fitted using nonlinear regression model with a sigmoidal dose response.

MCF-7-FL = assay: Cancer cell growth inhibition, MCF-7-FL; assay type: cell-based; settings: Homo sapiens, Breast Cancer, 72 h treatment
Protocol: as §1, §2, §3, §4

LNCaP = assay: Cancer cell growth inhibition, LNCaP; assay type: cell-based, human; settings: Homo sapiens, Prostate Cancer, 72 h treatment
Protocol: as §1, §2, §3, §4

PC-3 = assay: Cancer cell growth inhibition, PC-3; assay type: cell-based, human; settings: Homo sapiens; PC-3, Prostate Cancer, 72 h treatment
Protocol: as §1, §2, §3, §4

Colo205 = assay: Cancer cell growth inhibition, Colo205; assay type: cell-based; settings: Homo sapiens, COLO 205; Colo205, Colorectal Cancer, 72 h treatment
Protocol: as §1, §2, §3, §4

DLD-1 = assay: Cancer cell growth inhibition, DLD-1; assay type: cell-based, human; settings: Homo sapiens; DLD-1, Colorectal Cancer, 72 h treatment
Protocol: as §1, §2, §3, §4

SW620 = assay: Cancer cell growth inhibition, SW620; assay type: cell-based, human; settings: Homo sapiens, SW-620; SW620, Colorectal Cancer, 72 h treatment
Protocol: as §1, §2, §3, §4

Calu-6 = assay: Cancer cell growth inhibition, Calu-6; assay type: cell-based, human; settings: Homo sapiens; Calu-6, Lung Cancer, 72 h treatment
Protocol: as §1, §2, §3, §4

NCI-H226 = assay: Cancer cell growth inhibition, NCI-H226; assay type: cell-based, human; settings: Homo sapiens; NCI-H226, Lung Cancer, 72 h treatment
Protocol: as §1, §2, §3, §4

NCI-H460 = assay: Cancer cell growth inhibition, NCI-H460; assay type: cell-based, human; settings: Homo sapiens; NCI-H460, Lung Cancer, 72 h treatment
Protocol: as §1, §2, §3, §4

PANC-1 = assay: Cancer cell growth inhibition, PANC-1; assay type: cell-based, human; settings: Homo sapiens; PANC-1, Pancreatic Cancer, 72 h treatment
Protocol: as §1, §2, §3, §4

Hep3B = assay: Cancer cell growth inhibition, Hep3B; assay type: cell-based, human; settings: Homo sapiens, Liver Cancer, 72 h treatment
Protocol: as §1, §2, §3, §4

HepG2 = assay: Cancer cell growth inhibition, HepG2; assay type: cell-based, human; settings: Homo sapiens; HepG2, Liver Cancer, 72 h treatment
Protocol: as §1, §2, §3, §4

SK-HEP-1 = assay: Cancer cell growth inhibition, SK-HEP-1; assay type: cell-based; settings: Homo sapiens, SK-HEP1; SK-HEP-1, Liver Cancer, 72 h treatment
Protocol: as §1, §2, §3, §4

143b = assay: Cancer cell growth inhibition, 143b; assay type: cell-based; settings: Homo sapiens, Osteosarcoma, 72 h treatment
Protocol: as §1, §2, §3, §4

SK-MEL-5 = assay: Cancer cell growth inhibition, SK-MEL-5; assay type: cell-based, human; settings: Homo sapiens; SK-MEL-5, Melanoma, 72 h treatment
Protocol: as §1, §2, §3, §4

BGC823 = assay: Cancer cell growth inhibition, BGC823; assay type: cell-based, human; settings: Homo sapiens, BGC-823; BGC823, Gastric Cancer, 72 h treatment
Protocol: as §1, §2, §3, §4

SK-OV-3 = assay: Cancer cell growth inhibition, SK-OV-3; assay type: cell-based, human; settings: Homo sapiens; SK-OV-3, Ovarian Cancer, 72 h treatment
Protocol: as §1, §2, §3, §4

KB = assay: Cancer cell growth inhibition, KB; assay type: cell-based, human; settings: Homo sapiens, Oral Cancer, 72 h treatment
Protocol: as §1, §2, §3, §4

Chain of Human HDAC1 (Q13547 whole entry): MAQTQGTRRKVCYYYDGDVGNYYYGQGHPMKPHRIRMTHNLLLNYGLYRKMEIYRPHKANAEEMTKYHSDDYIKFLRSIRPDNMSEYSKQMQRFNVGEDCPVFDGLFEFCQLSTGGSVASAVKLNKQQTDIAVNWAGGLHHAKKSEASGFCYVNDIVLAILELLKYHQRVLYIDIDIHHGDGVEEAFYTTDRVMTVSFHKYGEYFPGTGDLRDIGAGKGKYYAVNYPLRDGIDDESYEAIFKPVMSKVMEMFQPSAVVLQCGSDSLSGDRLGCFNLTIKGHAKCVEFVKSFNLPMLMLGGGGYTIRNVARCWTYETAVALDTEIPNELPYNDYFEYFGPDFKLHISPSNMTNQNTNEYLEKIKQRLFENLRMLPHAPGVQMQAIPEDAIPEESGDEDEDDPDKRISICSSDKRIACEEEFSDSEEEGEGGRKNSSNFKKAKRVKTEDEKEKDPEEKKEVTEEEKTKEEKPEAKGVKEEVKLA

| IC50 (Human HDAC1) | IC50 (Human HDAC2) | IC50 (Human HDAC8) | IC50 (BT474) | IC50 (LNCaP) | IC50 (PC-3) | IC50 (Colo205) | IC50 (DLD-1) | IC50 (SW620) | IC50 (Calu-6) | IC50 (NCI-H226) | IC50 (NCI-H460) | IC50 (PANC-1) | IC50 (Hep3B) | IC50 (HepG2) | IC50 (SK-HEP-1) | IC50 (143b) | IC50 (SK-MEL-5) | IC50 (BGC823) | IC50 (SK-OV-3) | SMILES | also measured |
| --- | --- | --- | --- | --- | --- | --- | --- | --- | --- | --- | --- | --- | --- | --- | --- | --- | --- | --- | --- | --- | --- |
| 84.2 nM | 318 nM | 64.1 nM | 1.63 µM | 4.11 µM | 2.41 µM | 1.56 µM | 24.5 µM | 1.53 µM | 4.07 µM | 21.3 µM | 26.7 µM | 9.84 µM | 2.7 µM | 2.01 µM | 1.75 µM | 2.62 µM | 0.851 µM | 13.7 µM | 1.63 µM | O=C(NO)c1ccc(CNC(=O)c2[nH]c(-c3ccc(O)cc3)cc2-c2ccsc2)cc1 [Example 14, N-{4-[(hydroxyamino)carbonyl]benzyl}-5-(4-hydroxyphenyl)-3-(3-thienyl)-1H-pyrrole-2-carboxamide] | IC50 (Human HDAC4): 956 nM; IC50 (Human HDAC5): 172 nM; IC50 (Human HDAC6): 0.44 nM; IC50 (Human HDAC9): 277 nM; IC50 (Human HDAC10): 316 nM; IC50 (MCF-7-FL): 6.64 µM; IC50 (KB): 0.702 µM |
| 184 nM | 392 nM | 174 nM | 12.9 µM | 3.07 µM | 1.31 µM | 3.1 µM | 3.22 µM | 2 µM | 0.726 µM | 12.6 µM | 12.1 µM | 11.5 µM | 4.27 µM | 1.77 µM | 9.93 µM | 11.1 µM | 3.79 µM | 7.79 µM | 8.43 µM | COc1ccc(-c2cc(-c3ccsc3)c(C(=O)NCc3ccc(C(=O)NO)cc3)[nH]2)cc1 [Example 28, N-{4-[(hydroxyamino)carbonyl]benzyl}-5-(4-methoxyphenyl)-3-(3-thienyl)-1H-pyrrole-2-carboxamide] | IC50 (Human HDAC4): 2430 nM; IC50 (Human HDAC5): 640 nM; IC50 (Human HDAC6): 2 nM; IC50 (Human HDAC9): 478 nM; IC50 (Human HDAC10): 723 nM; IC50 (KB): 3.43 µM |

Continued, compound first:

| SMILES | IC50 (Human HDAC1) | IC50 (Human HDAC2) | IC50 (Human HDAC8) | IC50 (BT474) | IC50 (LNCaP) | IC50 (PC-3) | IC50 (Colo205) | IC50 (DLD-1) | IC50 (SW620) | IC50 (Calu-6) | IC50 (NCI-H226) | IC50 (NCI-H460) | IC50 (PANC-1) | IC50 (Hep3B) | IC50 (HepG2) | IC50 (SK-HEP-1) | IC50 (143b) | IC50 (SK-MEL-5) | IC50 (BGC823) | IC50 (SK-OV-3) | also measured |
| --- | --- | --- | --- | --- | --- | --- | --- | --- | --- | --- | --- | --- | --- | --- | --- | --- | --- | --- | --- | --- | --- |
| O=C(NO)c1ccc(CNC(=O)c2[nH]c(-c3ccoc3)cc2-c2ccc(O)cc2)cc1 [Example 9, 5-(3-furyl)-N-{4-[(hydroxyamino)carbonyl]benzyl}-3-(4-hydroxyphenyl)-1H-pyrrole-2-carboxamide] | 378 nM | 909 nM | 227 nM | 3.63 µM | 9.91 µM | 3 µM | 4.91 µM | 6.87 µM | 1.82 µM | 9.61 µM | 11.9 µM | 10.5 µM | 10.7 µM | 3.18 µM | 5.01 µM | 4.47 µM | 12.9 µM | 3.33 µM | 9.68 µM | 4.17 µM | IC50 (Human HDAC6): 6.8 nM; IC50 (MCF-7-FL): 7.72 µM; IC50 (KB): 2.96 µM |
| COc1ccc(-c2cc(-c3ccoc3)c(C(=O)NCc3ccc(C(=O)NO)cc3)[nH]2)cc1 [Example 27, 3-(3-furyl)-N-{4-[(hydroxyamino)carbonyl]benzyl}-5-(4-methoxyphenyl)-1H-pyrrole-2-carboxamide] | 71 nM | 157 nM | 148 nM | 0.119 µM | 0.366 µM | 0.42 µM | 0.248 µM | 0.592 µM | 0.377 µM | 0.492 µM | 1.77 µM | 1.68 µM | 0.965 µM | 0.614 µM | 0.498 µM | 1.1 µM | 2.57 µM | 0.256 µM | 0.676 µM | 1.67 µM | IC50 (Human HDAC4): 1080 nM; IC50 (Human HDAC5): 222 nM; IC50 (Human HDAC6): 1.6 nM; IC50 (Human HDAC9): 163 nM; IC50 (KB): 0.315 µM |
| O=C(NO)c1ccc(CNC(=O)c2[nH]c(-c3ccc(O)cc3)cc2-c2ccoc2)cc1 [Example 15, 3-(3-furyl)-N-{4-[(hydroxyamino)carbonyl]benzyl}-5-(4-hydroxyphenyl)-1H-pyrrole-2-carboxamide] | 49.9 nM | 144 nM | 74.8 nM | 0.442 µM | 1.72 µM | 0.281 µM | 0.365 µM | 4.48 µM | 0.334 µM | 1.22 µM | 3.05 µM | 6.29 µM | 6.45 µM | 0.859 µM | 2.28 µM | 0.45 µM | 1.93 µM | 0.292 µM | 5.14 µM | 0.651 µM | IC50 (Human HDAC4): 338 nM; IC50 (Human HDAC5): 60 nM; IC50 (Human HDAC9): 59 nM; IC50 (Human HDAC10): 35 nM; IC50 (MCF-7-FL): 3.31 µM; IC50 (KB): 0.184 µM |
